One experiment has as its target T1, Ba/F3 Axl (Homo sapiens, UniProt P30530).
T1 sequence (P30530 1-894): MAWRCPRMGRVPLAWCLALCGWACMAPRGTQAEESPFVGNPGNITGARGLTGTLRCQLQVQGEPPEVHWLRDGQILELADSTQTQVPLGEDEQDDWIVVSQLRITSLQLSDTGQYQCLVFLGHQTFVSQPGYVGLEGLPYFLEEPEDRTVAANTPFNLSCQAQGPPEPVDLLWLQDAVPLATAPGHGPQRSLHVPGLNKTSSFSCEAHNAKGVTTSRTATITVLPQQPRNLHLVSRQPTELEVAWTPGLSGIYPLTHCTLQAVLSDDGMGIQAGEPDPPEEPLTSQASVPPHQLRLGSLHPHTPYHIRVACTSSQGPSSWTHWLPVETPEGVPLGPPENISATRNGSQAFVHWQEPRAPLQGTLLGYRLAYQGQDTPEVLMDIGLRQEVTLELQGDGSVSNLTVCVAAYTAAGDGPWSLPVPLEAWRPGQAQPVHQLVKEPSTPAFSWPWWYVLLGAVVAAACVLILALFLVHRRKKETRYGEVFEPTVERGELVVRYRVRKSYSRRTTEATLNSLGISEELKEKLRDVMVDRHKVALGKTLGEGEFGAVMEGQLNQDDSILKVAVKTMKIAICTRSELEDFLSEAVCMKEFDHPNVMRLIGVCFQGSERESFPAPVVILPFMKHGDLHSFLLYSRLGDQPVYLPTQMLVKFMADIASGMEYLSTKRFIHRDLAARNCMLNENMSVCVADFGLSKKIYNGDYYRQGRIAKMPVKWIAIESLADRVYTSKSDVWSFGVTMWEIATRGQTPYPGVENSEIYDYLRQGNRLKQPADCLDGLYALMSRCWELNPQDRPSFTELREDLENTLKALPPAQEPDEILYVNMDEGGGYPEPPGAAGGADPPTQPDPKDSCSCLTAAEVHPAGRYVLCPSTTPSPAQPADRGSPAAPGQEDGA
As to the kind of experiment: Proliferation suppression rate using mouse pro-B cell line (Ba/F3 Axl) stably expressing Axl. The class given is cell-based. Particulars: Ba/F3 Axl cells, 48 hours, CellTiter-Glo; read-out: IC50 value, proliferation suppression of Ba/F3 Axl. As for the experimental part: Biological Example 2: Measurement of Proliferation Suppression Rate by Using Mouse Pro-B Cell Line (Ba/F3 Axl) Stably Expressing Axl
A 0.1 mmol/L DMSO solution of the test compound was dispensed into a 96-well plate, and a 3-fold dilution series was prepared using DMSO. DMSO solutions of test compounds, having various concentrations, were further 500-fold diluted with a RPMI1640 medium (containing 10% HI-FBS, 1% penicillin) and a diluted solution of the test compound having […] with respect to the final concentration was prepared. In each well of the 96-well plate (BD Biosciences) for measurement, 50 μL of a RPMI medium was added to the Blank group, 50 μL of a RPMI medium containing 0.2% DMSO was added to the medium group, and 50 μL of the diluted solution of the test compound was added to the test compound group, respectively. Ba/F3 Axl was diluted with a medium to have a density of 2×10^5 cells/mL to prepare a cell suspension. In each well of the 96-well plate for measurement, 50 μL each of the RPMI medium was added to the Blank group, and 50 μL each of the cell suspension to the medium group and the test compound group, respectively, and the groups were stood still at 37° C. at 5% CO2 for 48 hours. After standing still, Relative Light Unit (RLU) was measured by using CELLTITER-GLO (registered trademark) LUMINESCENT CELL VIABILITY ASSAY (Promega). The measurement was carried out according to the attached instruction. To each well, 100 μL each of light-emitting solution was added. The plate was stirred at room temperature for 3 min and then stool still at room temperature with light shielded for 10 min, and RLU was measured by using Microplate Reader (SpectraMax M5e, Molecular Devices). The average values of RLU of the Blank group and the medium group were respectively calculated, and the proliferation suppression rate of the test compound group was calculated. Proliferation suppression rate (%)={1−(RLU of test compound group−A)/(B−A)}×100 [Math. 2] A: average value of RLU of Blank group B: average value of RLU of medium group
A value of 50% inhibition rate (IC50 value) of the test compound was calculated from the inhibition curve based on the inhibition rate in each concentration of the test compound.

In another experiment the target is KDR (Homo sapiens, UniProt P35968). As to the kind of experiment: Evaluation of kinase selectivity (in vitro test), KDR. Particulars: Axl selective inhibitory activity with respect to KDR, ratio of IC50 values. The class given is biochemical. As for the experimental part:
Biological Example 3: Evaluation of Kinase Selectivity (In Vitro Test)
Similar to Biological Example 1, values of 50% inhibition rate (IC50 value) with respect to various kinases (KDR, DDR1, FLT4, and ROS) of the test compound were measured. The Axl selective inhibitory activity of the test compound with respect to kinases, for example, KDR, was calculated based on the above-mentioned ratio of the IC50 values. As the test compound, for the compound of the present invention, the compounds of Examples 5, 5(1), 17(2), and 23(2) were used, and for the comparative compounds, the compound of Example 5 (Comparative compound C) and the compound of Example 92 (Comparative compound D) described in Patent Literature 5, having the following structure, were used.

Sequence of KDR (P35968 20-1356): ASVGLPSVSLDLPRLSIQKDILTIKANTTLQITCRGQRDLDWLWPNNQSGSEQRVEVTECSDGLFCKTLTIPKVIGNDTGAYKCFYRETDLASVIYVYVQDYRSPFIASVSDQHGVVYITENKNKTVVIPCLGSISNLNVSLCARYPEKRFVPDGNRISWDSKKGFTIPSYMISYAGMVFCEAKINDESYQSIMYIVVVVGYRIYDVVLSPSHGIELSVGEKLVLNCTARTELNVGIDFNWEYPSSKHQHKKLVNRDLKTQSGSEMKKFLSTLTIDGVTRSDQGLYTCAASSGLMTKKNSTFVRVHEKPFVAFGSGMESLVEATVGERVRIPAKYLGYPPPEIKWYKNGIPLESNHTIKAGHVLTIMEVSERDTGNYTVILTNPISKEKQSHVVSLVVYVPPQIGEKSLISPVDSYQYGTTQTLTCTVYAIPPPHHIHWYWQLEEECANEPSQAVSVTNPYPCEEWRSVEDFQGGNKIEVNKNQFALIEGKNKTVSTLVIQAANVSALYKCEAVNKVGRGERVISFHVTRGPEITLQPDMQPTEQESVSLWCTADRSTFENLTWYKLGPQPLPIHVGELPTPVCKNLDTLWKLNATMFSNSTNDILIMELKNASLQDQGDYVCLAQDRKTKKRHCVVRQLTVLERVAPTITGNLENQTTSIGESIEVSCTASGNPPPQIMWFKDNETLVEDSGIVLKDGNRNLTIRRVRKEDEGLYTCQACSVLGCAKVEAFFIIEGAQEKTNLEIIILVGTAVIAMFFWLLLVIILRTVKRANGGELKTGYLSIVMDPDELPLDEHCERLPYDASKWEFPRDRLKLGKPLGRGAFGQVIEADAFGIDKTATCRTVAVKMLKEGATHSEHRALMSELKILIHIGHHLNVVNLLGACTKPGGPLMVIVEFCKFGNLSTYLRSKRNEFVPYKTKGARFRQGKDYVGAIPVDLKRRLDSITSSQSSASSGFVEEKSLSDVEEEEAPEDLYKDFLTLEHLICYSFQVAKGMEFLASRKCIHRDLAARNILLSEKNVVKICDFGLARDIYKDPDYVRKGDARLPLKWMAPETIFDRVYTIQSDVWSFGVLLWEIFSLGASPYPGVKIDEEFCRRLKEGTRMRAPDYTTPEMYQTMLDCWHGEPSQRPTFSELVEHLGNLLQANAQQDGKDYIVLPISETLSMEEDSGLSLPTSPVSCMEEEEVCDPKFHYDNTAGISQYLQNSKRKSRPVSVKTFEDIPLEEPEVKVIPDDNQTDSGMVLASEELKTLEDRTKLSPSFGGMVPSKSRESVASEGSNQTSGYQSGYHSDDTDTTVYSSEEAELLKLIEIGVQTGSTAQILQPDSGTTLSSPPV

Take `COc1cc2nccc(Oc3ccc(NC(=O)c4cc5c(n(-c6ccccc6)c4=O)CCCC5=O)c(C)c3)c2cc1OC` [Example 23(2), N-{4-[(6,7-dimethoxy-4-quinolinyl)oxy]-2-methylphenyl}-2,5-dioxo-1-phenyl-1,2,5,6,7,8-hexahydro-3-quinolinecarboxamide]: the GI50 on Ba/F3 Axl came to 1.2 nM. Further, the “KDR [IC50]/Axl [IC50]” value at KDR was “about 520 times”.

For the compound `COc1cc2nccc(Oc3ccc(NC(=O)c4cc5c(n(-c6ccccc6)c4=O)CC(C)(C)CC5=O)nc3)c2cc1OC` [Example 5(1), N-{5-[(6,7-dimethoxy-4-quinolinyl)oxy]-2-pyridinyl}-7,7-dimethyl-2,5-dioxo-1-phenyl-1,2,5,6,7,8-hexahydro-3-quinolinecarboxamide], the GI50 at Ba/F3 Axl is 0.8 nM. In addition, at KDR, the “KDR [IC50]/Axl [IC50]” value was “about 1800 times”.

Regarding `COc1cc2nccc(Oc3ccc(NC(=O)c4cc5c(n(-c6ccccc6)c4=O)CCCC5=O)nc3)c2cc1OC` [Example 5, N-{5-[(6,7-dimethoxy-4-quinolinyl)oxy]-2-pyridinyl}-2,5-dioxo-1-phenyl-1,2,5,6,7,8-hexahydro-3-quinolinecarboxamide], the GI50 at Ba/F3 Axl worked out at 0.7 nM. Also, the “KDR [IC50]/Axl [IC50]” value at KDR is “about 900 times”.

For `O=C1CCCc2c1cc(C(=O)Nc1ccc(Oc3ccnc4cc(OCCCN5CCOCC5)ccc34)cn1)c(=O)n2-c1ccccc1` [Example 17(2), N-[5-({7-[3-(4-morpholinyl)propoxy]-4-quinolinyl}oxy)-2-pyridinyl]2,5-dioxo-1-phenyl-1,2,5,6,7,8-hexahydro-3-quinolinecarboxamide], the GI50 at Ba/F3 Axl is 1.2 nM. In addition, on KDR, the “KDR [IC50]/Axl [IC50]” value is given as “about 650 times”.
